Measured values reported in patent US4504462A, “Process for making a lyophilized product for use in skeletal imaging” (Mallinckrodt, Inc., priority 1982, dated 1985).

Assay: skeletal imaging with scintillation camera
Type: in vivo, adult human subject
Procedure: An imaging agent is prepared using this kit by adding about 5 ml of a pertechnetate-Tc99m physiological saline with an activity of about 75 mCi, from a commercial technetium source. The kit is agitated until the kit components are dissolved. About 1 ml of the agent is slowly injected, over a period of about 30 seconds, into an adult human subject weighing about 75 kg.

[1] = component substituted in the kit of Example 1 or Example II, compared with the original kit

Compound	results when substituted in the kit [1]	results when substituted in the kit (in vivo)
CC(O)(P(=O)(O)O)P(=O)(O)O [EHDP, ethane-1-hydroxy-1,1-diphosphonic acid, reference compound]	substantially similar results	
O=P(O)(O)CP(=O)(O)O [MDP, methanediphosphonic acid, reference compound]	substantially similar results	
CC1CC(O)=C(O)C1=O (stereo not drawn) [5-methyl reductic acid]	substantially similar results	
NC(P(=O)(O)O)P(=O)(O)O [methaneaminodiphosphonic acid, reference compound]	substantially similar results	
CN(C)C(P(=O)(O)O)P(=O)(O)O [methane-N,N-dimethylaminodiphosphonic acid, reference compound]	substantially similar results	
O=P(O)(O)C(O)P(=O)(O)O [HMDP, methanehydroxydiphosphonic acid, reference compound]	substantially similar results	
CNC(P(=O)(O)O)P(=O)(O)O [methane-N-methylaminodiphosphonic acid, reference compound]	substantially similar results	
O=C([O-])[C@H](O)[C@@H](O)C(=O)[O-].[Sn+2] [stannous tartrate]	substantially similar results	
O=C1O[C@H]([C@@H](O)CBr)C(O)=C1O [6-bromo-6-deoxyascorbic acid]	substantially similar results	
stannous fluoride		substantially similar results
O=C1O[C@H]([C@@H](O)CCl)C(O)=C1O [6-chloro-6-deoxyascorbic acid]	substantially similar results	
NCC(O)(P(=O)(O)O)P(=O)(O)O [ethane-1-hydroxy-2-amino-1,1-diphosphonic acid, reference compound]	substantially similar results	
O=C1O[C@H]([C@@H](O)CO)C([O-])=C1O.[Na+] [sodium ascorbate]	substantially similar results	
O=C1O[C@H]([C@@H](O)CBr)C([O-])=C1O.[Na+] [sodium-6-bromo-6-deoxyascorbate]	substantially similar results	
O=C1O[C@H]([C@H](O)CO)C(O)=C1O [erythorbic acid]	substantially similar results	
O=C1O[C@H]([C@@H](O)CCl)C([O-])=C1O.[Na+] [sodium-6-chloro-6-deoxyascorbate]	substantially similar results	
O=C1CCC(O)=C1O [reductic acid]	substantially similar results	
O=S(=O)([O-])[O-].[Sn+2] [stannous sulfate]	substantially similar results	
